# Measurements taken from BindingDB's records for patent US20240034729 (Wuhan Ll Science and Technology Development, 2024).
# Target: T1, P2X purinoceptor 3 (Homo sapiens, UniProt P56373)
# T1 sequence (P56373 whole entry): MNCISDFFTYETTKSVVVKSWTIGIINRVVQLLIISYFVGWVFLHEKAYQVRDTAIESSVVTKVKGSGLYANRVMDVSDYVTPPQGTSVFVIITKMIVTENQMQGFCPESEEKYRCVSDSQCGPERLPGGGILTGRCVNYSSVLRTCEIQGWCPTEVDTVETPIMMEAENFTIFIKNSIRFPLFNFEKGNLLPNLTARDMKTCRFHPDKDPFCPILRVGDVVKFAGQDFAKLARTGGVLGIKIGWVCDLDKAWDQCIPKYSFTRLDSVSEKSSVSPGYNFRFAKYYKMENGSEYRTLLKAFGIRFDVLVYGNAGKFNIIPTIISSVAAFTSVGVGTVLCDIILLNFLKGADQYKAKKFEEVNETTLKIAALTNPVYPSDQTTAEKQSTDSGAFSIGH
# Experiment: Evaluation of In Vitro Biological Activity
# Method: Each well was added with 10 μL of test compound (which was dissolved in DMSO at a concentration of 10 mM and serially diluted with buffer) or vehicle, and then was left to equilibrate for 30 min at room temperature.
row,Structure (SMILES),IC50 [µM]
1,"COC(=O)N1CCO[C@@H](Cc2c(-c3c(F)cc(C#N)cc3F)nc3cc(C)ccn23)C1 [US20240034729, Compound 6]",< 1
2,"COC(=O)N1CCO[C@@H](Cc2c(-c3c(F)cc(-c4ncccn4)cc3F)nc3cc(C)ccn23)C1 [US20240034729, Compound 18]",< 1
3,"COC(=O)N1CCO[C@@H](Cc2c(-c3c(F)cc(NC(=O)/C=C/C(N)=O)cc3F)nc3cc(C)ccn23)C1 [US20240034729, Compound 29]",< 0.01
4,"CCC(=O)N1CCO[C@@H](Cc2c(-c3c(F)cc(-c4ncc[nH]4)cc3F)nc3cc(C)ccn23)C1 [US20240034729, Compound 52]",< 0.01
5,"COC(=O)N1CCO[C@@H](Cc2c(-c3c(F)cc(-n4cnnn4)cc3F)nc3cc(C)ccn23)C1 [US20240034729, Compound 58]",< 0.01
6,"COC(=O)N1CCO[C@@H](Cc2c(-c3c(F)cc(-c4nc(C5(C(=O)O)CC5)c[nH]4)cc3F)nc3cc(C)ccn23)C1 [US20240034729, Compound 59]",< 0.01
7,"COC(=O)N1CCO[C@@H](Cc2c(-c3c(F)cc(CC(N)=O)cc3F)nc3cc(C)ccn23)C1 [US20240034729, Compound 63]",< 1
8,"COC(=O)N1CCO[C@@H](Cc2c(-c3c(F)cc(NC4CCC(=O)C4)cc3F)nc3cc(C)ccn23)C1 (some centres undefined) [US20240034729, Compound 79]",< 0.1
9,"COC(=O)N1CCO[C@@H](Cc2c(-c3c(F)cc(NC(=O)C4(C#N)CC4)cc3F)nc3cc(C)ccn23)C1 [US20240034729, Compound 89]",< 0.1
10,"COC(=O)N1CCO[C@@H](Cc2c(-c3c(F)cc(NC(=O)C4(C(=O)OC)CC4)cc3F)nc3cc(C)ccn23)C1 [US20240034729, Compound 97]",< 1
11,"COC(=O)N1CCO[C@@H](Cc2c(-c3c(F)cc(-c4nn[nH]n4)cc3F)nc3cc(C)ccn23)C1 [US20240034729, Compound 104]",< 1
12,"COC(=O)N1CCO[C@@H](Cc2c(-c3c(F)cc(-n4cnc(C(N)=O)c4)cc3F)nc3cc(C)ccn23)C1 [US20240034729, Compound 110]",< 0.1
13,"COC(=O)N1CCO[C@@H](Cc2c(-c3c(F)cc(-c4nc(C(C)(C)O)co4)cc3F)nc3cc(C)ccn23)C1 [US20240034729, Compound 119]",< 0.1
14,"COC(=O)N1CCO[C@@H](Cc2c(-c3c(F)cc(-c4nc(C5(C(N)=O)CC5)c[nH]4)cc3F)nc3cc(C)ccn23)C1 [US20240034729, Compound 133]",< 0.1
15,"COC(=O)N1CCO[C@@H](Cc2c(-c3c(F)cc(-c4nc(C5(C#N)CC5)c[nH]4)cc3F)nc3cc(C)ccn23)C1 [US20240034729, Compound 144]",< 0.1
16,"COC(=O)N1CCO[C@@H](Cc2c(-c3c(F)cc(-c4ccc(C(N)=O)cn4)cc3F)nc3cc(C)ccn23)C1 [US20240034729, Compound 146]",< 1
17,"COC(=O)N1CCO[C@@H](Cc2c(-c3c(F)cc(-c4ccc(O)cn4)cc3F)nc3cc(C)ccn23)C1 [US20240034729, Compound 147]",< 0.1
18,"CCC(=O)c1ccn(-c2cc(F)c(-c3nc4cc(C)ccn4c3C[C@H]3CN(C(=O)OC)CCO3)c(F)c2)n1 [US20240034729, Compound 164]",< 0.1
19,"COC(=O)N1CCO[C@@H](Cc2c(-c3c(F)cc(N4CC=CC4=O)cc3F)nc3cc(C)ccn23)C1 [US20240034729, Compound 169]",< 0.01
